Experimental data as given in patent US20110118298A1, “COMPOSITIONS, KITS, AND METHODS FOR IDENTIFICATION, ASSESSMENT, PREVENTION, AND THERAPY OF CANCER” (INFINITY PHARMACEUTICALS, INC., priority 2009, published 2011).
Structures can show the parent of a compound that is named as a salt.

Experiment: Phase II study of IPI-504 monotherapy in advanced NSCLC: adverse events and laboratory abnormalities
Type: in vivo, human
Method: Treatment consisted of a 30-minute infusion of intravenous IPI-504 on days 1, 4, 8 and 11 of a 21-day cycle. Therapy continued until progressive disease (PD), intolerable side effects, or elective withdrawal. A total of 76 patients were enrolled. The starting dose was 400 mg/m^2 for 75 patients. In April 2009, the dose for patients who were on study (19 patients) was lowered to 225 mg/m^2, due to hepatotoxicities observed at the 400 mg/m^2 dose in a separate trial of IPI-504 in patients with gastrointestinal stromal tumors (GIST) (Demetri G. D. et al. Final results from a phase III study of IPI-504 (retaspimycin hydrochloride) versus placebo in patients with gastrointestinal stromal tumors (GIST) following failure of kinase inhibitor therapies. Paper presented at: Gastrointestinal Cancers Symposium; Jan. 22-24, 2010, 2010; Orlando, Fla.), and the last enrolled patient started at a dose of 225 mg/m^2.
All patients were assessed for safety by history, physical examination, blood chemistries, liver function tests and blood counts, at baseline and prior to each infusion. Amylase and lipase were assessed if there were symptoms of pancreatitis. Adverse events were graded using the NCl common toxicity criteria version 3.0 (NCl. Common terminology criteria for adverse events (CTCAE) version 3.0 Aug. 9, 2006). Slit lamp eye examinations were performed during screening and electrocardiograms were obtained during screening and before and after the first infusion, to evaluate for keratitis and QTc prolongation, respectively. Radiographic evaluation of tumor response by CT-scan was performed after every 2 cycles. All films were reviewed and independently assessed by a central radiology core laboratory.
Summary statistics were used to describe safety and included all patients treated with IPI-504. PFS was defined as the time from enrollment to progressive disease or death, censored at the last known follow-up, and was calculated with the Kaplan-Meier method, following the intent-to-treat principle.

[1] = maximum post-baseline grade based on laboratory values

C=CCNc1c(O)cc2c(O)c1C[C@@H](C)C[C@H](OC)[C@H](O)[C@@H](C)/C=C(\C)[C@H](OC(N)=O)[C@@H](OC)/C=C\C=C(/C)C(=O)N2 [IPI-504, retaspimycin hydrochloride]
Abdominal pain: patients with Grade 1 or 2 event (76 patients): 18 (23.7) n (%) | Abdominal pain: patients with any event (76 patients): 18 (23.7) n (%) | Abdominal pain: patients with ≧Grade 3 event (76 patients): 1 (1.3) n (%) | Anorexia: patients with Grade 1 or 2 event (76 patients): 18 (23.7) n (%) | Anorexia: patients with any event (76 patients): 19 (25.0) n (%) | Anorexia: patients with ≧Grade 3 event (76 patients): 4 (5.3) n (%) | Arthralgia: patients with Grade 1 or 2 event (76 patients): 17 (22.4) n (%) | Arthralgia: patients with any event (76 patients): 19 (25.0) n (%) | Arthralgia: patients with ≧Grade 3 event (76 patients): 2 (2.6) n (%) | Back pain: patients with Grade 1 or 2 event (76 patients): 16 (21.1) n (%) | Back pain: patients with any event (76 patients): 16 (21.1) n (%) | Back pain: patients with ≧Grade 3 event (76 patients): 0 (0.0) n (%) | Constipation: patients with Grade 1 or 2 event (76 patients): 18 (23.7) n (%) | Constipation: patients with any event (76 patients): 18 (23.7) n (%) | Constipation: patients with ≧Grade 3 event (76 patients): 2 (2.6) n (%) | Cough: patients with Grade 1 or 2 event (76 patients): 24 (31.6) n (%) | Cough: patients with any event (76 patients): 24 (31.6) n (%) | Cough: patients with ≧Grade 3 event (76 patients): 2 (2.6) n (%) | Dehydration: patients with Grade 1 or 2 event (76 patients): 11 (14.5) n (%) | Dehydration: patients with any event (76 patients): 14 (18.4) n (%) | Dehydration: patients with ≧Grade 3 event (76 patients): 3 (3.9) n (%) | Diarrhoea: patients with Grade 1 or 2 event (76 patients): 37 (48.7) n (%) | Diarrhoea: patients with any event (76 patients): 40 (52.6) n (%) | Diarrhoea: patients with ≧Grade 3 event (76 patients): 8 (10.5) n (%) | Dizziness: patients with Grade 1 or 2 event (76 patients): 12 (15.8) n (%) | Dizziness: patients with any event (76 patients): 12 (15.8) n (%) | Dizziness: patients with ≧Grade 3 event (76 patients): 0 (0.0) n (%) | Dyspnoea: patients with Grade 1 or 2 event (76 patients): 15 (19.7) n (%) | Dyspnoea: patients with any event (76 patients): 18 (23.7) n (%) | Dyspnoea: patients with ≧Grade 3 event (76 patients): 6 (7.9) n (%) | Fatigue: patients with Grade 1 or 2 event (76 patients): 41 (53.9) n (%) | Fatigue: patients with any event (76 patients): 44 (57.9) n (%) | Fatigue: patients with ≧Grade 3 event (76 patients): 6 (7.9) n (%) | Headache: patients with Grade 1 or 2 event (76 patients): 19 (25.0) n (%) | Headache: patients with any event (76 patients): 19 (25.0) n (%) | Headache: patients with ≧Grade 3 event (76 patients): 0 (0.0) n (%) | Infusion site pain: patients with Grade 1 or 2 event (76 patients): 15 (19.7) n (%) | Infusion site pain: patients with any event (76 patients): 15 (19.7) n (%) | Infusion site pain: patients with ≧Grade 3 event (76 patients): 0 (0.0) n (%) | Insomnia: patients with Grade 1 or 2 event (76 patients): 12 (15.8) n (%) | Insomnia: patients with any event (76 patients): 12 (15.8) n (%) | Insomnia: patients with ≧Grade 3 event (76 patients): 0 (0.0) n (%) | Musculoskeletal chest pain: patients with Grade 1 or 2 event (76 patients): 11 (14.5) n (%) | Musculoskeletal chest pain: patients with any event (76 patients): 13 (17.1) n (%) | Musculoskeletal chest pain: patients with ≧Grade 3 event (76 patients): 3 (3.9) n (%) | Myalgia: patients with Grade 1 or 2 event (76 patients): 18 (23.7) n (%) | Myalgia: patients with any event (76 patients): 19 (25.0) n (%) | Myalgia: patients with ≧Grade 3 event (76 patients): 1 (1.3) n (%) | Nausea: patients with Grade 1 or 2 event (76 patients): 41 (53.9) n (%) | Nausea: patients with any event (76 patients): 43 (56.6) n (%) | Nausea: patients with ≧Grade 3 event (76 patients): 6 (7.9) n (%) | Pyrexia: patients with Grade 1 or 2 event (76 patients): 12 (15.8) n (%) | Pyrexia: patients with any event (76 patients): 12 (15.8) n (%) | Pyrexia: patients with ≧Grade 3 event (76 patients): 0 (0.0) n (%) | Urine colour abnormal: patients with Grade 1 or 2 event (76 patients): 22 (28.9) n (%) | Urine colour abnormal: patients with any event (76 patients): 22 (28.9) n (%) | Urine colour abnormal: patients with ≧Grade 3 event (76 patients): 0 (0.0) n (%) | Vision blurred: patients with Grade 1 or 2 event (76 patients): 12 (15.8) n (%) | Vision blurred: patients with any event (76 patients): 12 (15.8) n (%) | Vision blurred: patients with ≧Grade 3 event (76 patients): 0 (0.0) n (%) | Vomiting: patients with Grade 1 or 2 event (76 patients): 25 (32.9) n (%) | Vomiting: patients with any event (76 patients): 28 (36.8) n (%) | Vomiting: patients with ≧Grade 3 event (76 patients): 6 (7.9) n (%) | deaths on study considered related to study drug (76 patients): Three | patients who discontinued therapy for adverse events (76 patients): 14% | patients with dose reductions for toxicity (76 patients): 12% | bilirubin elevation (Grade 3 or 4): No Grade 3 or 4 bilirubin elevation | ALT elevations (Grade 3 or greater): 7% | AST elevations (Grade 3 or greater): 9% | alkaline phosphatase elevations (Grade 3 or greater): 5% | tolerability (IPI-504 monotherapy, hydrochloride): generally well tolerated | alanine aminotransferase (ALT) elevations (any grade): 41% | alkaline phosphatase elevations (any grade): 62% | aspartate aminotransferase (AST) elevations (any grade): 49% | ALT (liver function test): patients with Grade 1 or 2 event [1]: 26 (34.2) n (%) | ALT (liver function test): patients with any event [1]: 31 (40.8) n (%) | ALT (liver function test): patients with ≧Grade 3 event [1]: 5 (6.6) n (%) | AST (liver function test): patients with Grade 1 or 2 event [1]: 30 (39.5) n (%) | AST (liver function test): patients with any event [1]: 37 (48.7) n (%) | AST (liver function test): patients with ≧Grade 3 event [1]: 7 (9.2) n (%) | Alkaline phosphatase (liver function test): patients with Grade 1 or 2 event [1]: 43 (56.6) n (%) | Alkaline phosphatase (liver function test): patients with any event [1]: 47 (61.8) n (%) | Alkaline phosphatase (liver function test): patients with ≧Grade 3 event [1]: 4 (5.3) n (%) | Total bilirubin (liver function test): patients with Grade 1 or 2 event [1]: 3 (3.9) n (%) | Total bilirubin (liver function test): patients with any event [1]: 3 (3.9) n (%) | Total bilirubin (liver function test): patients with ≧Grade 3 event [1]: 0 (0.0) n (%) | transient, non-toxic purple-colored urine (share of patients): About a third
